Assays:
Adenosine receptor A1 [1] = target: T1, Adenosine receptor A1 (Homo sapiens, UniProt P30542)
T1 sequence (P30542 whole entry): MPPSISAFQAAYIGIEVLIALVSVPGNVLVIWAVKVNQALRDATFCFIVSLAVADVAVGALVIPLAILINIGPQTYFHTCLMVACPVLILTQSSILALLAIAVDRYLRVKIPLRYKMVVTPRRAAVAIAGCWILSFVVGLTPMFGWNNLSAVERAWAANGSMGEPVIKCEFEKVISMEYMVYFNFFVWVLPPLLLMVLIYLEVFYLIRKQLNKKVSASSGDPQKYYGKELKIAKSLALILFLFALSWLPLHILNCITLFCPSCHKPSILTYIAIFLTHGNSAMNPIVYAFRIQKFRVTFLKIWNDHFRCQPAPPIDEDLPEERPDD
Description: Antagonist activity at human adenosine A1 receptor

Adenosine receptor A2a [2] = target: Adenosine receptor A2a (Homo sapiens, UniProt P29274); assay: Antagonist activity at human adenosine A2A receptor
animal or person = settings: Mus musculus, po, 6 h, read-out: INH
[3] = Agonist activity at D2 receptor in mouse MN9D cells assessed as increase in GTPgammaS binding
[4] = Agonist activity at D3 receptor in mouse MN9D cells assessed as increase in GTPgammaS binding
[5] = target: T2, Amine oxidase [flavin-containing] B (Homo sapiens, UniProt P27338); assay: Inhibition of human MAO-B
T2 sequence (P27338 whole entry): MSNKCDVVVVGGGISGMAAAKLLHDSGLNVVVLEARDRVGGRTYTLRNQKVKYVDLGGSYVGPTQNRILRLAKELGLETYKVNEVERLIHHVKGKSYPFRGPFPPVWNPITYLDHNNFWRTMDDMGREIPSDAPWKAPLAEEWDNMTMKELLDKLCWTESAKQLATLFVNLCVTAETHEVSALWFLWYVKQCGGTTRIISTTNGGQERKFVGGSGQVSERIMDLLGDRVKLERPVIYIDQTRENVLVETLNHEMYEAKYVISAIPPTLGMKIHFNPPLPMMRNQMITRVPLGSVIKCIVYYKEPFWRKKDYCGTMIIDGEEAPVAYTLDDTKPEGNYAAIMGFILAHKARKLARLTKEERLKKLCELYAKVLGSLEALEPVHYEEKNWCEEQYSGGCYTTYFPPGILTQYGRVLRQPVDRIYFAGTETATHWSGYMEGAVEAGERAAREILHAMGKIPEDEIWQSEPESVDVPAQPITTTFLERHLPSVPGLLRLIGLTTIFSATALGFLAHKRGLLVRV

[6] = Plasma concentration in 6-OHDA-unilateral lesioned mouse model of Parkinson's disease at 50 mg/kg,ip measured after 4 hrs
[7] = Drug concentration in 6-OHDA-unilateral lesioned mouse model of Parkinson's disease assessed as brain concentration at 50 mg/kg,ip measured after 4 hrs
Adenosine receptor A2a [8] = target: Adenosine receptor A2a (Rattus norvegicus, UniProt P30543); assay: Antagonist activity at rat adenosine A2A receptor
Adenosine receptor A1 [9] = target: T3, Adenosine receptor A1 (Rattus norvegicus, UniProt P25099); assay: Antagonist activity at rat adenosine A1 receptor
T3 sequence (P25099 whole entry): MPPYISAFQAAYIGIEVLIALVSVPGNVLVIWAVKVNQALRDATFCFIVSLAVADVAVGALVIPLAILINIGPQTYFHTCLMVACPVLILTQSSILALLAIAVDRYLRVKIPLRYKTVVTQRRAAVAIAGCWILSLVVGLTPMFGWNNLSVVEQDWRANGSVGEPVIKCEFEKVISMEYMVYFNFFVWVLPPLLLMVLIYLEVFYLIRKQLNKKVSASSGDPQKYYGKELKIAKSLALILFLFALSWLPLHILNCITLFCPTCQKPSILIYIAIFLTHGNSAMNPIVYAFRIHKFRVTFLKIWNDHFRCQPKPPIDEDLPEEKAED

D(2) dopamine receptor [10] = target: T4, D(2) dopamine receptor (Homo sapiens, UniProt P14416)
Description: Agonist activity at dopamine D2 receptor (unknown origin)

[11] = Metabolic stability at human liver microsomes assessed as intrinsic clearance
[12] = Metabolic stability at human liver microsomes assessed as half life
[13] = Displacement of [3H]-SCH23390 from D1 receptor in rat striatum incubated for 30 mins by competitive radioligand binding based scintillation counter analysis
[14] = Displacement of [3H]-spiperone from D2 receptor in rat striatum incubated for 90 mins by competitive radioligand binding based scintillation counter analysis
[15] = Half life in rat at 3 mg/kg,po; settings: in vivo
in vivo [16] = settings: rat, po, 3 mg/kg
[17] = Agonist activity at rat mGlu4 receptor assessed as increase in calcium flux
in vivo [18] = settings: rat, po, 15 mg/kg
Description: Oral bioavailability in 6-OHDA-unilateral lesioned rat model of Parkinson's disease at 15 mg/kg

D(2) dopamine receptor [19] = target: T4, D(2) dopamine receptor; remark: listed apart in the source
D(3) dopamine receptor [20] = target: T5, D(3) dopamine receptor (Homo sapiens, UniProt P35462); assay: Agonist activity at dopamine D3 receptor (unknown origin) assessed as increase in GTPgammaS binding
[21] = Inhibition of c-Jun phosphorylation in streptozotocin stimulated rat INS1 cells using TMB as substrate incubated for 16 hrs by microplate reader assay; settings: INS1, 16 h
D(3) dopamine receptor [22] = target: T5, D(3) dopamine receptor; assay: Agonist activity at dopamine D3 receptor (unknown origin)
[23] = Inhibition of Monoamine oxidase in MPTP-induced C57BL/6 mouse assessed as inhibition constant

T4 sequence (P14416 whole entry): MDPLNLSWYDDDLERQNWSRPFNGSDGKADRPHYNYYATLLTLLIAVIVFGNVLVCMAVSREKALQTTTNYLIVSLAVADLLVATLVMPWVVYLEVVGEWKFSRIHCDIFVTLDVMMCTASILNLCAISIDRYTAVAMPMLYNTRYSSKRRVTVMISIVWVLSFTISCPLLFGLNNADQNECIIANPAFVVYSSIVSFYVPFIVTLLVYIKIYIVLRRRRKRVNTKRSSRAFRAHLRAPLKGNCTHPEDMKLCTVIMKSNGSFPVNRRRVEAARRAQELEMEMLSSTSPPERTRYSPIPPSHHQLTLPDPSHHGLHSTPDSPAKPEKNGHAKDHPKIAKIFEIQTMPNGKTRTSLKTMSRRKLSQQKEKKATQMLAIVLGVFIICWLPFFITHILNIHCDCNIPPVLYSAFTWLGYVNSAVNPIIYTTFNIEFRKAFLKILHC
Sequence of Adenosine receptor A2a (Homo sapiens, UniProt P29274) (P29274 whole entry): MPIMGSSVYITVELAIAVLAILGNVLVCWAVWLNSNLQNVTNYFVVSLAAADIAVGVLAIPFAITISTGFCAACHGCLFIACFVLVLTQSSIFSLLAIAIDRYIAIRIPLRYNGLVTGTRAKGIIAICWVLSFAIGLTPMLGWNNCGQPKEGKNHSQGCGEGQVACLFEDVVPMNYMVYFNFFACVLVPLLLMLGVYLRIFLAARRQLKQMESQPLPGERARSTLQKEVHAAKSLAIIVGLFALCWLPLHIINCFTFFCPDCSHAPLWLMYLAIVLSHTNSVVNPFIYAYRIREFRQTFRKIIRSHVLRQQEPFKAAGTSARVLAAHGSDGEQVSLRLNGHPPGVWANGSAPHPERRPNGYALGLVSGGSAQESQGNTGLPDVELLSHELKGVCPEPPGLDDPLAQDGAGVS
T5 sequence (P35462 whole entry): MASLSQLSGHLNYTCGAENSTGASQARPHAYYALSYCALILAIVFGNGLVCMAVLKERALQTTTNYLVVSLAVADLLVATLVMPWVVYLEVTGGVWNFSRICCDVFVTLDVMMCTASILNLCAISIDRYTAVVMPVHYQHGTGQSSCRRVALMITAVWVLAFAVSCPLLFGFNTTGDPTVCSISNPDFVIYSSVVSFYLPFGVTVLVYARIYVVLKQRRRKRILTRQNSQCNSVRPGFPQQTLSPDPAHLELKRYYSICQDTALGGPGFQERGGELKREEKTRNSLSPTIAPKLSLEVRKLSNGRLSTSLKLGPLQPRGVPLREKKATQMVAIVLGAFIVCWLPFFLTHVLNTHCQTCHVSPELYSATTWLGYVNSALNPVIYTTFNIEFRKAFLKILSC
Sequence of Adenosine receptor A2a (Rattus norvegicus, UniProt P30543) (P30543 whole entry): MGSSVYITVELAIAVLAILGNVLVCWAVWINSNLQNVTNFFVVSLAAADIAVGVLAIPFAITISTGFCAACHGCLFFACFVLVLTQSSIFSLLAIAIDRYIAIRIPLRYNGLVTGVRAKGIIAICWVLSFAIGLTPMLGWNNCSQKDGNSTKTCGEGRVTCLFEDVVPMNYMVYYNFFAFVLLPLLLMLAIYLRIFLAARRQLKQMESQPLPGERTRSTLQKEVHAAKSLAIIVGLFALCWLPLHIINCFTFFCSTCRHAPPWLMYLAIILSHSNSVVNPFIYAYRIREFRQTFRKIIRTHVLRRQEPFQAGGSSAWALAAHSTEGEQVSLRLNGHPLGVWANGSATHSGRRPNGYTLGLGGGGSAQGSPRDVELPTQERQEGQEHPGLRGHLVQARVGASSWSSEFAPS

## Nc1nc(N2CCN3CCC[C@@H]3C2)cc2nc(-c3ccco3)nn12
Adenosine receptor A1 [1]
  Ki: 1100 nM
Adenosine receptor A2a [2]
  Ki: 63 nM

## O=C(CCN1CCN(c2cccc(C(F)(F)F)c2)CC1)c1cc(O)c(O)c([N+](=O)[O-])c1
Animal or person
  inhibition in vivo at 30 mg/kg: 74%

## CCCN(CCN1CCN(C(=O)c2cc3ccccc3[nH]2)CC1)[C@H]1CCc2nc(N)sc2C1
[3]
  EC50: 2.96 nM
[4]
  EC50: 1.26 nM

## COc1ccc(/C(C)=N/NC(=O)c2cc(-c3ccccc3)on2)cc1OC
[5]
  IC50: 5.9 nM

## Cc1cc(Oc2nccc3occc23)ccc1-c1c(C)c(=O)[nH]c(=O)n1C
[6]
  concentration at 4 h: 100 µM
[7]
  concentration at 4 h: 100 µM

## Cc1ccc(-c2cc(-c3cccc(C(=O)N4CCCCC4)c3)nc(N)n2)o1
Adenosine receptor A2a [8]
  Ki: 9.54 nM
Adenosine receptor A1 [9]
  Ki: 6.34 nM

## Cc1cccc(Nc2nc(NCCCO)nc3c2cnn3-c2ccccc2)c1
Adenosine receptor A1 [1]
  Ki: > 540 nM

## CCCN(CCN1CCN(c2ccc(-c3ccccn3)nc2)CC1)[C@H]1CCc2nc(N)sc2C1
D(2) dopamine receptor [10]
  EC50: 51.6 nM

## CO[C@@H]1CCN(c2cccc(-c3nc(-n4nc(C)cc4C)nc(N)c3C#N)n2)C1
[11]
  CLint scaled: 34 mL/min/kg
[12]
  half-life: 53 min

## CCCN1CCC[C@H]2c3[nH]c4ccccc4c3CC[C@@H]21
[13]
  Ki: 19.8 nM
[14]
  Ki: 1.31 nM

## Nc1nc(NC[C@H]2CCCN2Cc2ccnc(Cl)c2)nc2nc(-c3ccco3)nn12
Adenosine receptor A2a [8]
  Ki: 10 nM
Adenosine receptor A1 [9]
  Ki: > 250 nM

## Cn1nc(C(F)(F)F)c(CN2CCN(c3nc(N)n4nc(-c5ccco5)nc4n3)CC2)c1Cl
[15]
  half-life: 30 min
In vivo [16]
  bioavailability: 7%

## Fc1ccc(Nc2n[nH]c3cccnc23)cc1Cl
[17]
  EC50: 46 nM
In vivo [18]
  bioavailability: 95%

## CCCN(CCN1CCN(c2ccc3c(c2)[nH]c2ccccc23)CC1)[C@H]1CCc2c(O)cccc2C1
D(2) dopamine receptor [19]
  EC50: 0.23 nM
D(3) dopamine receptor [20]
  EC50: 0.87 nM

## C#CCN1CCC[C@H]2c3[nH]c4ccccc4c3CC[C@@H]21
[13]
  Ki: 2.15 nM
[14]
  Ki: 1.09 nM

## COC[C@H]1CCCN1c1cc(Nc2ccccn2)nc(-n2cccn2)n1
Adenosine receptor A2a [2]
  Ki: 0.22 nM

## Cc1ccc(-c2ncn(-c3ccc(Nc4nccc(-c5cccc(N6CCOCC6)c5)n4)cc3)n2)cn1
[21]
  IC50: 216 nM

## C/C(=N\NC(=O)c1cc(-c2ccccc2)on1)c1ccc(C)cc1
[5]
  IC50: 5.1 nM

## CCCN(CCN1CCN(c2ccc3[nH]ccc3c2Cl)CC1)[C@H]1CCc2nc(N)sc2C1
[3]
  EC50: 114 nM
[4]
  EC50: 0.26 nM

## CCCN(CCN1CCN(c2ccccc2)CC1)[C@H]1CCc2ccc(O)cc2C1
D(3) dopamine receptor [22]
  EC50: 2.91 nM
D(2) dopamine receptor [10]
  EC50: 9.98 nM

## CNCc1cc(=O)oc2c(O)c(O)ccc12
[5]
  IC50: 12400 nM

## CC1=C(C)C(=O)c2cc(C)ccc2C1=O
[23]
  Ki: 6000 nM
